Ten compounds from ChEMBL document CHEMBL4476882, “Inhibitors of nedd8-activating enzyme” (2013) can be followed below.

Molecules are shown by their SMILES. Active and inactive are the calls of the source. No cut-off for these calls is given here.

For one data set, the target named is T1, NEDD8 activating enzyme (Homo sapiens, UniProt Q8TBC4).
T1 sequence (Q8TBC4 whole entry): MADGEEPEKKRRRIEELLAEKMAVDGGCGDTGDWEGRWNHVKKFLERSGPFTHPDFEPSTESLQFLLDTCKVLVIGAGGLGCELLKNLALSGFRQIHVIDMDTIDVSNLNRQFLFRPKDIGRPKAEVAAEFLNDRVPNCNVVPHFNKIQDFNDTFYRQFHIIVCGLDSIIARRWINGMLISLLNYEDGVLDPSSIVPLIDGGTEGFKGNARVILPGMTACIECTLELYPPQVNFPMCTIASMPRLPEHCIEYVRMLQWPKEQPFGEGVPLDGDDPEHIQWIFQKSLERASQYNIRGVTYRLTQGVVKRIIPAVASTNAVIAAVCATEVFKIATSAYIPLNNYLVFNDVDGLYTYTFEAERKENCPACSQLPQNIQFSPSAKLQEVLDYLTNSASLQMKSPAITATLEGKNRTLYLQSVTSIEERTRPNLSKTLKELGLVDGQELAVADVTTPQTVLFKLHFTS
T1 sequence (Q13564 whole entry): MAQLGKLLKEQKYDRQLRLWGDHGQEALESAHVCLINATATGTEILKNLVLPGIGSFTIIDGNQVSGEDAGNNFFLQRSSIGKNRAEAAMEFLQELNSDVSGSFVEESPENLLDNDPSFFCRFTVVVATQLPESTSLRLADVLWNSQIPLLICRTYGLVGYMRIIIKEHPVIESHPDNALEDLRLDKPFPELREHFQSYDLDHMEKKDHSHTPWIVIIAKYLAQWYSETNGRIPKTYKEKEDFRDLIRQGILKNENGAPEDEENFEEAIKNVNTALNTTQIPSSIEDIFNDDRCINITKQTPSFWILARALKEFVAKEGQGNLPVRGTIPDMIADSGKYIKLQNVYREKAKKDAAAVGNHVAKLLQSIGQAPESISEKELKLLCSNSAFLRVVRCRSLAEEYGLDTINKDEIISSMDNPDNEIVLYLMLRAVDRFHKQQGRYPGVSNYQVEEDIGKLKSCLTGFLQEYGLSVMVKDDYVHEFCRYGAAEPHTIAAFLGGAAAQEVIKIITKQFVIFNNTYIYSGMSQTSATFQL
The data set can be described thus: Inhibition of recombinant human NAE using GST-tagged Ubc12 and Flag-tagged Nedd8 incubated for 105 mins by HTRF assay. The class given is protein-complex assay.

The subject of data set [1] is Mus musculus. The data set can be described thus: Inhibition of NAE in female Ncr nude mouse bearing HCT116 tumor xenografts assessed as increase in Nedd8-Cullin levels at 30 mg/kg, sc dosed as single administration measured up to 24 hrs post dose. Type of data set: functional, organism-based.
The nature of data set [2]: AUC (last) in plasma of female Ncr nude mouse bearing HCT116 tumor xenografts at 30 mg/kg, sc dosed as single administration measured up to 24 hrs post dose. Type of data set: ADME, organism-based. Further details: dose 30 mg/kg, time 0 - last, route subcutaneous.
Data set [3] can be described thus: Cmax in plasma of female Ncr nude mouse bearing HCT116 tumor xenografts at 30 mg/kg, sc dosed as single administration measured up to 24 hrs post dose. Type of data set: ADME, organism-based. Further details: dose 30 mg/kg, route subcutaneous.
Data set [4] concerns Mus musculus. The experiment in a line: Inhibition of NAE in female Ncr nude mouse bearing HCT116 tumor xenografts assessed as increase in Nedd8-Cullin levels at 10 mg/kg, sc dosed as single administration measured up to 24 hrs post dose. The class given is functional, organism-based.
A short description of data set [5]: AUC (last) in plasma of female Ncr nude mouse bearing HCT116 tumor xenografts at 10 mg/kg, sc dosed as single administration measured up to 24 hrs post dose. The class given is ADME, organism-based. Further details: dose 10 mg/kg, time 0 - last, route subcutaneous.
Data set [6] is described as follows: Cmax in plasma of female Ncr nude mouse bearing HCT116 tumor xenografts at 10 mg/kg, sc dosed as single administration measured up to 24 hrs post dose. Type of data set: ADME, organism-based. Further details: dose 10 mg/kg, route subcutaneous.

As to `CO[C@H]1CCc2ccccc2C1Nc1cc(O[C@H]2CC(O)[C@H](COS(N)(=O)=O)C2)ncn1` (single isomer, unassigned), the IC50 at NEDD8 activating enzyme was at most 0.5 µM. As to `CO[C@H]1Cc2ccccc2[C@H]1Nc1cc(O[C@@H]2C[C@@H](COS(N)(=O)=O)[C@@H](O)C2)ncn1`, the inhibition result with Mus musculus [1] was “Active”. The compound also displayed an AUC(0-t) at 24 h in data set [2] of 26.3 µM·h. This compound also came in with a peak concentration (Cmax) in data set [3] of 27.1 µM. Turning to `COc1ccccc1-c1nc2c(N[C@@H]3C[C@@H](COS(N)(=O)=O)[C@@H](O)C3)ncnc2[nH]1`, on NEDD8 activating enzyme, the IC50 is at most 0.5 µM. In the case of `NS(=O)(=O)OC[C@H]1C[C@@H](Nc2ncnc(N[C@H]3CCc4ccccc43)n2)[C@H](O)[C@@H]1O`, the half-maximal inhibitory concentration (IC50) at NEDD8 activating enzyme was at most 0.5 µM. `CN(C)C(=O)[C@H]1Cc2ccccc2[C@H]1Nc1cc(O[C@@H]2C[C@@H](COS(N)(=O)=O)[C@@H](O)C2)ncn1`: on NEDD8 activating enzyme, the half-maximal inhibitory concentration (IC50) lay in the range of 0.5 to 10 µM.

For `NS(=O)(=O)OC[C@@H]1C[C@@H](Nc2ncnc3[nH]c(-c4ccc(Cl)cc4)nc23)C[C@@H]1O`, on NEDD8 activating enzyme, the IC50 is at most 0.5 µM. Regarding `Cc1c(N[C@H]2CCc3ccccc32)ncnc1O[C@@H]1C[C@@H](COS(N)(=O)=O)[C@@H](O)C1`, the IC50 on NEDD8 activating enzyme was at most 0.5 µM.

For the compound `CO[C@H]1Cc2cc(Cl)ccc2C1Nc1cc(O[C@@H]2CC(COS(N)(=O)=O)[C@@H](O)C2)ncn1` (single isomer, unassigned), the inhibition result in the data set with Mus musculus [1] and in the data set with Mus musculus [4] was “Active” each time. The AUC(0-t) at 24 h in data set [2] worked out at 54.8 µM·h; in data set [5], 24.5 µM·h. The peak concentration (Cmax) stood at 24.2 µM in data set [3] and 10.4 µM in data set [6].

Consider `COc1cccc(-c2nc3c(N[C@@H]4C[C@@H](COS(N)(=O)=O)[C@@H](O)C4)ncnc3[nH]2)c1OC`, for which the 50% inhibitory concentration (IC50) on NEDD8 activating enzyme was at most 0.5 µM. Consider `NS(=O)(=O)OC[C@@H]1C[C@@H](Oc2cc(N[C@H]3CCc4ccccc43)ncn2)C[C@@H]1O`, for which the IC50 on NEDD8 activating enzyme is above 10 µM.
